Source: ChEMBL document CHEMBL3507680, “University of Dundee, Gates Library screen for HepG2 cell viability”

Experiment: Human HepG2 cell viability assay in 384 well format
Type: toxicity, cell-based
Design: dose 125 nL, time 70.5 hour; cytotoxicity at 70.5 h: concentration not given beside the values
Details: HepG2 cells, read-out: Inhibition

Row | Compound | cytotoxicity at 70.5 h
1 | Cc1ccc(-c2nc(CN3CCn4c(C)nnc4C3)co2)cc1 | -6.98%
2 | O=C(CN1CCc2cncnc2C1)Nc1ccc(Cl)cn1 | 6.59%
3 | Cc1ccc(NC2CCN(C(=O)c3cc4c(s3)CCC4)CC2)nn1 | -13.9%
4 | CCc1ncc2c(n1)CN(CC(=O)Nc1nncs1)CC2 | -7.12%
5 | COc1ccc(S(=O)(=O)N2CCc3ccc(Cl)cc32)cc1C(=O)O | 0.6%
6 | Cc1ccc(S(=O)(=O)N2CCc3ccc(F)cc32)cc1C(=O)O | -6.54%
7 | COc1cc(S(=O)(=O)N2CCc3ccccc32)cc(C(=O)O)c1OC | -5.58%
8 | COc1cc(S(=O)(=O)N2CCc3cc(Br)ccc32)cc(C(=O)O)c1OC | -0.737%
9 | Cc1ccc(NC2CCN(C(=O)c3ccc(C(N)=O)s3)CC2)nn1 | -5.83%
10 | Fc1ccc(-c2nc(CN3CCn4c(nnc4C4CC4)C3)co2)cc1 | -8.13%
11 | Cc1ccc(-c2nc(CN3CCn4c(nnc4C4CC4)C3)co2)c(C)c1 | -5.17%
12 | Cc1oc(C)c(C(=O)N2CCCN(c3nccs3)CC2)c1C | -5.97%
13 | O=C(c1ccc2nncn2c1)N1CCCCC1Cn1cccn1 (stereo not drawn) | 8.64%
14 | CCc1noc(C(C)N2CCN(S(=O)(=O)N3CCCC3)CC2)n1 (stereo not drawn) | -8.69%
15 | CCc1noc(C(C)N2CCC(C)CC2)n1 (stereo not drawn) | -3.85%
16 | CCc1noc(C(C)N2CCN(CC(C)C)CC2)n1 (stereo not drawn) | 12.8%
17 | CCC1CN(Cc2cccc(C(=O)N(C)C)c2)CCN1CCOC (stereo not drawn) | -8.03%
18 | Cc1cnn(CC2CCCCN2CCCS(C)(=O)=O)c1 (stereo not drawn) | -2.88%
19 | COc1ccc(C(=O)N2CCCC(n3cc(C)cn3)C2)c(F)c1 (stereo not drawn) | -3.25%
20 | Cc1ncncc1C(=O)N1CCCC(n2cccn2)C1 (stereo not drawn) | 8.65%
21 | COc1ccc(CC(=O)N2CCCC(n3cc(C)cn3)C2)c(OC)c1 (stereo not drawn) | -6.34%
22 | Cc1cnn(CC2CCCN2CCCS(C)(=O)=O)c1 (stereo not drawn) | -2.25%
23 | Cn1cc(CCC(=O)N2CCCC(n3cncn3)C2)cn1 (stereo not drawn) | -0.386%
24 | COc1ccc(CC(=O)N2CCCC(n3cccn3)C2)cc1F (stereo not drawn) | -6.84%

Row | Compound | cytotoxicity at 70.5 h
25 | CCc1nc(C2CCCN2C(=O)c2ccc3c(c2)COC3)no1 (stereo not drawn) | -2.9%
26 | NC(=O)C1CCN(C(=O)NCc2ccccc2-n2cccn2)C1 (stereo not drawn) | -4.02%
27 | O=C(c1ccn(-c2ccccc2)n1)N1CCCC(n2cccn2)C1 (stereo not drawn) | -0.6%
28 | CN(C(=O)Cc1ccc(F)cc1)C1CCN(c2ccccn2)CC1 | -1.36%
29 | CCNc1cc2c(nn1)CCN(C(=O)c1cc3ccccc3o1)C2 | -6.18%
30 | Cc1cnn(CC2CCCCN2C(=O)c2ccc3nncn3c2)c1 (stereo not drawn) | -3.43%
31 | CCc1nc(C2CCCN2C(=O)c2ccc3c(c2)nnn3C)no1 (stereo not drawn) | 16.3%
32 | Cc1nc(CC(=O)N2CCCCC2Cn2cccn2)cs1 (stereo not drawn) | 25.2%
33 | Cc1cnc(CN(C)C2CCN(Cc3nc4ccccc4s3)C2)o1 (stereo not drawn) | 51.7%
34 | Cc1ccc(C(=O)N(C)Cc2cc(C)on2)cn1 | -2.86%
35 | CCN1CCN(c2ccc(CNC(=O)c3cnn(C)c3C)cn2)CC1 | -8.48%
36 | CCOc1ncccc1CNC(=O)NC(C)Cn1cccn1 (stereo not drawn) | 25.9%
37 | Cc1cc(CN(C)C(=O)c2ccc(N(C)C)nc2)no1 | -7.16%
38 | COc1ccccc1N1CCN(C(=O)NC(C)c2nncn2C)CC1 (stereo not drawn) | -5.73%
39 | CCn1ccnc1CN1CCCN(C(=O)c2cccn2C)CC1 | 23.9%
40 | Cn1cnc2c1CCN(Cc1cccc(C(N)=O)c1)C2 | -7.77%
41 | Cn1cc(CN2CCCN(C(=O)c3cc[nH]n3)CC2)cn1 | -9.96%
42 | CCc1nc(C2CCCN2C(=O)c2ncoc2CC)no1 (stereo not drawn) | -5.48%
43 | CCc1[nH]ncc1C(=O)N1CCCC(n2nc(C)nc2C)C1 (stereo not drawn) | 19.7%
44 | COc1ccc(CNC(=O)N2CCC(Cc3cnn(C)c3)C2)cc1C (stereo not drawn) | -3.46%
45 | O=C(NCc1nn(-c2ccccc2)c2c1CCC2)NC1CC1 | -19%
46 | Cc1cc(C)n(C2CCCN(C(=O)COCC(F)(F)F)C2)n1 (stereo not drawn) | -22.5%
47 | c1cnnc(N2CCCC2CNCc2nc(C3CC3)no2)c1 (stereo not drawn) | -11.8%
48 | CC(=O)N(Cc1noc(C2CC2)n1)C1CCN(Cc2ccncc2)C1 (stereo not drawn) | 19.8%

Row | Compound | cytotoxicity at 70.5 h
49 | CCc1nc(C2CCCN2C(=O)c2nccnc2N)no1 (stereo not drawn) | -18.5%
50 | Cc1cnn(CC2CCCN2C(=O)c2ccc3nnc(C)n3c2)c1 (stereo not drawn) | -1.07%
51 | CCc1nc(C)ncc1C(=O)N1CCCC(n2nc(C)nc2C)C1 (stereo not drawn) | -12%
52 | CSC(C)C(=O)N1CCCN(Cc2cscn2)CC1 (stereo not drawn) | 17.9%
53 | CC(Cn1ccnc1)NC(=O)NCCNC(=O)C(C)C (stereo not drawn) | 16.2%
54 | Cc1ccc(OCC(=O)NS(=O)(=O)c2cccnc2)cc1C | 23.3%
55 | COc1cccc(CNCc2c(C(C)C)nn(C)c2N(C)C)c1OC | -3.04%
56 | CC(C)Cc1noc(CN2CCN(CCO)CC2)n1 | -4.77%
57 | CC(C)Cc1noc(CN2CCOCC2)n1 | -0.996%
58 | Cc1nn(C)c(N(C)C)c1CNCc1cccc(OCCN(C)C)c1 | 27.3%
59 | CCn1ccnc1CN1CCN(CC(=O)NC(C)(C#N)C2CC2)CC1 (stereo not drawn) | -6.12%
60 | CCn1ccnc1CN1CCN(CC(=O)NC(=O)NC2CC2)CC1 | -8.53%
61 | COc1ccc(OC)c(CCNC(=O)NC(C)Cn2ccnc2)c1 (stereo not drawn) | 22%
62 | CCOCC(O)CN1CCN(C(=O)Cc2ccccc2C)CC1 (stereo not drawn) | -1.93%
63 | COc1ccccc1CCNC(=O)CN1CCCC1c1noc(C)n1 (stereo not drawn) | -3.07%
64 | Cc1cc(C)c(OCC(=O)NS(=O)(=O)c2cccnc2)c(C)c1 | -3.3%
65 | Cc1oc(C)c(C(=O)NCc2cccnc2N(C)C)c1C | -12.5%
66 | Cc1cc(C)n(CC(=O)N2CCC(NS(C)(=O)=O)CC2)n1 | -11.4%
67 | CC(Cc1ccco1)NC(=O)Nc1ccc(N2CCOCC2)nc1 (stereo not drawn) | -4.87%
68 | COc1cc(CNC(=O)Nc2cc(C(F)(F)F)c[nH]c2=O)ccn1 | 1.69%
69 | N#Cc1cn(C2CC2)c(=O)n(CC(O)c2ccc(OC(F)F)cc2)c1=O (stereo not drawn) | -17.5%
70 | Cc1cc(NC(=O)NCC(C)O)n(C)n1 (stereo not drawn) | 0.0779%
71 | Cc1cc(C)c(CNC(=O)N2CCN(c3cnccn3)CC2)c(=O)[nH]1 | -4.71%
72 | CCn1ccnc1CN1CCN(C(C)C(=O)NC2CCCCC2)CC1 (stereo not drawn) | 33.2%

Row | Compound | cytotoxicity at 70.5 h
73 | O=C(c1cccc2c1OCCO2)N1CCCC(n2ccnc2)C1 (stereo not drawn) | -5.73%
74 | Cc1cc(NC(=O)NCC(O)c2ccc(Cl)cc2Cl)n(C)n1 (stereo not drawn) | -11.8%
75 | Cc1nnc2n1CCN(C(=O)c1cc(Cl)c(Cl)n1C)C2 | -3.86%
76 | CCc1nc(CC(=O)N2CCn3c(nnc3C(C)C)C2)cs1 | 0.586%
77 | CCOCC(O)CN1CCN(C(=O)Cc2ccccc2Cl)CC1 (stereo not drawn) | -0.667%
78 | CCc1nc(CC(=O)N2CCn3c(nnc3C(F)(F)F)C2)cs1 | -7.01%
79 | COc1ccccc1CC(=O)NCc1c(C)nc2cc(=O)[nH]n2c1C | -8.5%
80 | c1ccc(-c2noc(CN3CCc4cncnc4C3)n2)nc1 | -9.29%
81 | Cc1nc(C2CCCN2CC(=O)NCCOc2ccccc2)no1 (stereo not drawn) | 0.566%
82 | COc1cc(CNc2cnn(C)c2)cc2c1OCCO2 | -4.12%
83 | Cc1ncsc1C(=O)N(C)Cc1cccc(Cl)c1 | 9.51%
84 | O=C(Cn1nc(-c2ccc(F)cc2)oc1=O)Nc1ccccc1 | 13.9%
85 | Cc1ccc(C(=O)Nc2cn[nH]c2)cn1 | -1.81%
86 | Cc1cc(CN(C)C(=O)NC2CCN(Cc3ccccc3)C2)no1 (stereo not drawn) | 7.2%
87 | CN(Cc1ccccc1O)C(=O)NC1CCCN(c2ncccn2)C1 (stereo not drawn) | 22.3%
88 | CCn1cc(NC(=O)NCC(O)COc2cccc(F)c2)cn1 (stereo not drawn) | -4.45%
89 | CCN(CC)C(=O)Cn1ccc2cc(NC(=O)C3CCCO3)ccc21 (stereo not drawn) | 7.81%
90 | CC(=O)c1cccc(OCCCC(=O)NCC2CCCN2C)c1 (stereo not drawn) | 7.09%
91 | CC(Cn1ccnc1)NC(=O)N1CCN(Cc2cccnc2)CC1 (stereo not drawn) | 0.583%
92 | Cc1nc(CNC(=O)Cn2nc(-c3ccc(F)cc3)oc2=O)cs1 | 0.339%
93 | CSc1sc(NC(=O)Cc2c(C)nc(C)[nH]c2=O)nc1C | 3.66%
94 | O=C(Nc1ncn(CC(=O)N2CCCCCC2)n1)C1CCCO1 (stereo not drawn) | 2.64%
95 | NC(=O)c1cnn2c1NCC(CNCCCOc1ccccc1F)C2 (stereo not drawn) | 6.81%
96 | Cc1ccc(C(=O)N2CCN(C(=O)NC(C)Cn3ccnc3)CC2)o1 (stereo not drawn) | -4.96%

Row | Compound | cytotoxicity at 70.5 h
97 | CC(C)c1nnc2n1CCN(C(=O)CN1Cc3ccccc3C1=O)C2 | 4.15%
98 | NC(=O)c1cnn2c1NCC(CNCCc1ccco1)C2 (stereo not drawn) | -1.07%
99 | Cc1cnn(CC2CCCCN2Cc2noc(C3CC3)n2)c1 (stereo not drawn) | -6.32%
100 | Cc1nc(C)n(CC2CN(c3nnc(C)c(C)c3C#N)CCO2)n1 (stereo not drawn) | 5.76%
101 | CNS(=O)(=O)c1ccc(C(=O)NC2CCc3nc(C)cn3C2)o1 (stereo not drawn) | -6.79%
102 | Cc1cn2c(n1)CCC(NC(=O)c1ccc(CS(C)(=O)=O)cc1)C2 (stereo not drawn) | -1.89%
103 | CN(C(=O)NCc1ccncc1)C1CCN(c2ccccc2)C1=O (stereo not drawn) | 11.5%
104 | O=C(Nc1ccccc1F)N(CCO)Cc1ccsc1 | 31.8%
105 | Cc1ncsc1C(=O)N(C)CCc1ccncc1 | -2.51%
106 | CC(=O)N1CCN(Cc2csc(-c3cnn(C)c3)n2)CC1 | 2.34%
107 | CC(C)c1nnc2n1CCN(CC(=O)N1CCc3ccccc3C1)C2 | 11.4%
108 | Cn1cc(Cl)cc1C(=O)N1CCN(Cc2ccsc2)CC1 | 0.559%
109 | Cc1nn(C)c(C)c1CC(=O)N1CCC(N(C)c2cccnn2)CC1 | 20.4%
110 | COCC(c1cccc(C(F)(F)F)c1)N(C)C(=O)c1cc(C)no1 (stereo not drawn) | 20%
111 | COCC(=O)NCc1cccc(Br)c1 | 19.4%
112 | O=C(CN1CCC(c2cccc(F)c2)C1)NCC(F)(F)F (stereo not drawn) | 26.9%
113 | Cc1nc(C2CCCN2CCCS(=O)(=O)N(C)C)no1 (stereo not drawn) | 22.2%
114 | CCCn1[nH]cc/c1=N\C(=O)CN1CCn2c(nnc2C2CC2)C1 | 8.11%
115 | CCN1CCN(C(=O)c2cc(C(=O)OC)nn2-c2ccccc2)CC1 | 0.312%
116 | CSCCCN1CCCC1c1noc(C)n1 (stereo not drawn) | 1.11%
117 | Cc1cnn(CCNCc2csc(-c3ccc4c(c3)OCO4)n2)c1 | 10.2%
118 | Cc1nn(C)c(N(C)C)c1CNC1CCc2c(F)cccc21 (stereo not drawn) | 7.05%
